Test results: patent publication US11524932B2, “Lipids for use in lipid nanoparticle formulations” (ACUITAS THERAPEUTICS, INC., priority 2017, dated 2022)

Key:
[1] = test system: luciferase expression in the liver; test: Luciferase mRNA in vivo evaluation using lipid nanoparticle compositions (liver luciferase expression); set-up: species or system mice; conditions: LNP with FLuc mRNA, tail vein injection, liver measured 4 hours after administration; for Liver Luc @ 0.5 mg/kg (ng luc/g liver): 0.5 mg mRNA/kg
Experimental: A lipid of structure (I), DSPC, cholesterol and PEG-lipid were solubilized in ethanol at a molar ratio of 50:10:38.5:1.5 or 47.5:10:40.8:1.7. Lipid nanoparticles (LNP) were prepared at a total lipid to mRNA weight ratio of approximately 10:1 to 30:1. Briefly, the mRNA was diluted to 0.2 mg/mL in 10 to 50 mM citrate buffer, pH 4. Syringe pumps were used to mix the ethanolic lipid solution with the mRNA aqueous solution at a ratio of about 1:5 to 1:3 (vol/vol) with total flow rates above 15 mL/min. The ethanol was then removed and the external buffer replaced with PBS by dialysis. Finally, the lipid nanoparticles were filtered through a 0.2 μm pore sterile filter.
Studies were performed in 6-8 week old female C57BL/6 mice (Charles River) 8-10 week old CD-1 (Harlan) mice (Charles River) according to guidelines established by an institutional animal care committee (ACC) and the Canadian Council on Animal Care (CCAC). Varying doses of mRNA-lipid nanoparticle were systemically administered by tail vein injection and animals euthanized at a specific time point (e.g., 4 hours) post-administration. Liver and spleen were collected in pre-weighed tubes, weights determined, immediately snap frozen in liquid nitrogen and stored at −80° C. until processing for analysis.
For liver, approximately 50 mg was dissected for analyses in a 2 mL FastPrep tubes (MP Biomedicals, Solon Ohio). ¼″ ceramic sphere (MP Biomedicals) was added to each tube and 500 μL of Glo Lysis Buffer—GLB (Promega, Madison Wis.) equilibrated to room temperature was added to liver tissue. Liver tissues were homogenized with the FastPrep24 instrument (MP Biomedicals) at 2×6.0 m/s for 15 seconds. Homogenate was incubated at room temperature for 5 minutes prior to a 1:4 dilution in GLB and assessed using SteadyGlo Luciferase assay system (Promega). Specifically, 50 μL of diluted tissue homogenate was reacted with 50 μL of SteadyGlo substrate, shaken for 10 seconds followed by 5 minute incubation and then quantitated using a CentroXS^3 LB 960 luminometer (Berthold Technologies, Germany). The amount of protein assayed was determined by using the BCA protein assay kit (Pierce, Rockford, Ill.). Relative luminescence units (RLU) were then normalized to total μg protein assayed. To convert RLU to ng luciferase a standard curve was generated with QuantiLum Recombinant Luciferase (Promega). […]
Compounds of structure (I) were formulated using the following molar ratio: 47.5% cationic lipid/10% distearoylphosphatidylcholine (DSPC)/40.8% Cholesterol/1.7% PEG lipid (“PEG-DMA” 2-[2-(ω-methoxy (polyethyleneglycol2000)ethoxy]-N,N-ditetradecylacetamide). Relative activity was determined by measuring luciferase expression in the liver 4 hours following administration via tail vein injection as described in Example 1. […]

[2] = Determination of pKa of formulated lipids (TNS fluorescence assay in lipid nanoparticles); assay type: physicochemical; conditions: lipid formulated in LNP (lipid/DSPC/cholesterol/PEG-lipid); pH giving half-maximal TNS fluorescence
Description: As described elsewhere, the pKa of formulated lipids is correlated with the effectiveness of LNPs for delivery of nucleic acids (see Jayaraman et al, Angewandte Chemie, International Edition (2012), 51(34), 8529-8533; Semple et al, Nature Biotechnology 28, 172-176 (2010)). In some embodiments, the preferred range of pKa is ˜5 to ˜7. […] Lipid nanoparticles comprising compound of structure (I)/DSPC/cholesterol/PEG-lipid (50/10/38.5/1.5 or 47.5:10:40.8:1.7 mol %) in PBS at a concentration of 0.4 mM total lipid were prepared using the in-line process as described in Example 1. TNS was prepared as a 100 μM stock solution in distilled water. Vesicles were diluted to 24 μM lipid in 2 mL of buffered solutions containing 10 mM HEPES, 10 mM MES, 10 mM ammonium acetate, and 130 mM NaCl, where the pH ranged from 2.5 to 11. An aliquot of the TNS solution was added to give a final concentration of 1 μM and following vortex mixing fluorescence intensity was measured at room temperature in a SLM Aminco Series 2 Luminescence Spectrophotometer using excitation and emission wavelengths of 321 nm and 445 nm. A sigmoidal best fit analysis was applied to the fluorescence data and the pKa was measured as the pH giving rise to half-maximal fluorescence intensity.

pKa [2]	Structure (SMILES)	Liver Luc @ 0.5 mg/kg (ng luc/g liver) [1] [ng luc/g liver]	Liver Luc (ng luc/g liver), dosed at 0.3 mg/kg ([1]; footnote *: dosed at 0.3 mg/kg)
6.11	CCCCCCCCC(CCCCCC)COC(=O)CCCCCC(CCCCCC(=O)OCC(CCCCCC)CCCCCCCC)NCCCCCC(=O)OCC(CC)CCCC (centres unmarked) [Compound 4]	102 ± 42	
6.5	CCCCCCCCC(CCCCCC)COC(=O)CCCCCNCCN(CCCCCC(=O)OCC(CCCCCC)CCCCCCCC)CCCCCC(=O)OCC(CCCCCC)CCCCCCCC (centres unmarked) [Compound 3]	33 ± 1	
6.39	CCCCCCCCC(CCCCCC)COC(=O)CCCCCN(CCCCCC(=O)OCC(CCCCCC)CCCCCCCC)CCNCCCCCC(=O)OCC(CCCC)CCCCCC (centres unmarked) [Compound 1]		1235 ± 345* ng luc/g liver
5.76	CCCCCCCCC(CCCCCC)COC(=O)CCCCCC(CCCCCC(=O)OCC(CCCCCC)CCCCCCCC)NCCCCCC(=O)OCC(CCCC)CCCCCC (centres unmarked) [Compound 2]	29 ± 4	
